PMC6027433, “Synthesis, Evaluation of Cytotoxicity and Molecular Docking Studies of the 7-Acetamido Substituted 2-Aryl-5-bromo-3-trifluoroacetylindoles as Potential Inhibitors of Tubulin Polymerization” (Pharmaceuticals, 2018)

Legend:
[1] = system: lung cancer (A549) cells; assay: MTT dose response cytotoxicity, A549; type: cell-based; details: Homo sapiens, 48 h
Experimental: (§1) Cells were seeded as described in above. […] The medium was aspirated and replaced with 200 μL fresh medium containing the dilution of the respective test compound. The test sample were added to each well and the plates were incubated for a further 48 h at 37 °C under 5% CO2 atmosphere in a humidified incubator. After this incubation period, the medium was removed and then replaced with 100 μL fresh culture medium containing MTT at a final concentration of 0.5 mg/mL. The 96-well plates were returned to the incubator and incubated for an additional 3 h. The medium was removed and the MTT crystals were solubilized in 100 μL DMSO and the absorbance was measured at 560 nm using a Labsystems Multiwell Scanning spectrophotometer (Thermo Fischer Scientific, Edenvale, South Africa).
(§2) Quantification of live and dead cells for the screening assay was performed using the ImageXpress Micro XLS Widefield Microscope and acquired images analysed using the MetaXpress software and Multi-Wavelength Cell Scoring Application Module. Acquired data was transferred to an EXCEL spreadsheet and relative cell viability was determined using quadruplicate wells for each concentration. Untreated cells were considered to have 100% cell viability (i.e., the mean OD of the untreated wells = 100% viability). Cell viabilities in other test wells were calculated relative to the untreated control and expressed as a percentage. Dose response analysis was performed using the statistical software GraphPad Prism and IC50 values calculated from the concentration-response data using a mathematical Hill function.

[2] = system: cervical cancer (HeLa) cells; assay: MTT dose response cytotoxicity, HeLa; type: cell-based; details: Homo sapiens, 48 h
Experimental: as §1, §2

[3] = system: A549 cancer cells; assay: Two-concentration cytotoxicity screen (Hoechst 33342/PI imaging), A549; type: cell-based; details: 10 μM and 100 μM, 48 h
Experimental: (§3) The HeLa and A549 cancer cells were initially exposed to two concentrations of each test compound (10 μM and 100 μM) for 48 h with a well-known chemotherapeutic drug, Melphalan, used as a reference standard at the same concentrations (Table 2 and Table 3). Acquisition was performed using the ImageXpress Micro XLS Widefield Microscope and the acquired images were analyzed using the MetaXpress software and Multi-Wavelength Cell Scoring Application Module (see Figure S2 in the Supplementary Information for cell viability percentages for each compound). The structure activity relationship (SAR) of these compounds has been evaluated with respect to the substitution patterns on the 2-phenyl ring, C-3 and C-7 positions.
(§4) The human cervical cancer cell line, HeLa, and lung cancer cell line, A549 were used for the screening assay. HeLa cells were grown and maintained in RPMI 1640 medium supplemented with 10% fetal bovine serum (FBS) and A549 cells were grown and maintained in EMEM supplemented with 10% FBS and 10% non-essential amino acids. In the case of screening experiments, the cells were seeded into 96 well microtiter plates at a density of 6000 cells/well to a total volume of 200 μL per well. The microtiter plates were incubated at 37 °C, 5% CO2, and 100% relative humidity for 24 h to allow for cell attachment. Each of the test compounds was first reconstituted in DMSO at a concentration of 40 mM and then stored at 4 °C prior to use and final dilution to working concentrations with culture complete medium on the day of treatment. Two hundred microliters aliquots of the diluted compound in fresh medium was used to treat cells after aspiration of seeding medium. Each of the cell lines was incubated for 48 h at 37 °C in a humidified incubator under 5% CO2 atmosphere. Treatment medium was aspirated from all wells and replaced with 100 μL of Hoechst 33342 nuclear dye (5 μg/mL) and incubated for 10 min at room temperature. Thereafter, cells were stained with propidium iodide (PI) at 100 μg/mL in order to enumerate the proportion of dead cells within the population. […]
as §2, with “Untreated cells were considered to have 100% cell viability (i.e., the mean OD of the untreated wells = 100% viability).” left out

[4] = system: HeLa cancer cells; assay: Two-concentration cytotoxicity screen (Hoechst 33342/PI imaging), HeLa; type: cell-based; details: 10 μM and 100 μM, 48 h
Experimental: as §3, §4
as §2, with “Untreated cells were considered to have 100% cell viability (i.e., the mean OD of the untreated wells = 100% viability).” left out

[5] = system: HeLa cells; assay: Caspase 8 and 3 activation (immunochemical), HeLa; type: cell-based, human; details: 24 h exposure at IC50 values
Experimental: (§5) Several distinctive mechanisms of cancer cell death such as apoptosis, necrosis, autophagy and cornification have been identified, and these are characterized by differences in morphology and biochemical changes. A major biochemical feature of apoptosis is the activation of caspases, which plays a central role in the morphological changes associated with apoptosis. Caspase activation was determined using immunochemical methods and the antibodies against activated caspase 8 and caspase 3. […] Activated caspase 8 can be used as a convenient indicator of involvement of the extrinsic death receptor pathway of apoptosis. Executioner caspases including caspase 3 are, in turn, activated by the initiator caspases. This protein is either partially or totally responsible for the cleavage of many key proteins such as PARP, DNA protein kinases and retinoblastoma protein [25]. […] This was true for both activated caspase 8 and 3. A more distinct increase was evident with caspase 3 albeit less pronounced than that of 4c and the increase was expected as caspase 3 is activated by initiator caspase including caspase 8, which is a later event in apoptosis. […] Prolonged treatment of the cells with compounds 5e–h for 48 h or more, for example, would probably result in significant effects. We also evaluated compound 5g for potential to induce other key apoptotic biochemical features such as phosphatidylserine (PS) translocation, cell cycle arrest and mitochondrial membrane depolarization.
(§6) Compounds 4c and 5g were selected for mechanism studies and these test compounds were reconstituted in dimethyl sulphoxide (DMSO) to give a final concentration of 40 mM. Samples were stored at 4 °C until required. […]
(§7) Quantification of live and dead cells for the assay was performed using the ImageXpress Micro XLS Widefield Microscope and acquired images analysed using the MetaXpress software and Multi-Wavelength Cell Scoring Application Module and the Cell Cycle Module. Acquired data was transferred to an EXCEL spreadsheet and data was analysed and processed.

[6] = system: A549 cells; assay: Caspase 8 and 3 activation (immunochemical), A549; type: cell-based, human; details: 24 h exposure at IC50 values
Experimental: as §5, §6, §7

[7] = system: neurotesin receptor type 2 (NTS2); parameters: method as in PMID 25157640; details: cited from earlier work

Structure (SMILES) | melting point [°C] | IC50 [1] [µM] | IC50 [2] [µM] | Cytotoxicity (percentage live cells compared to untreated control) [3] | Cytotoxicity (percentage live cells compared to untreated control) [4] | Caspase 8 and 3 activation (% change in mean integrated fluorescence intensity of the untreated control) [5] | Caspase 8 and 3 activation (% change in mean integrated fluorescence intensity of the untreated control) [6] | fold more active than the expected C-3 unsubstituted analogue ([7]; NTS2) [fold] | IC50 [7] [µM]
CC(=O)c1cc(Br)cc2cc(-c3ccccc3)[nH]c12 [Compound 2a, 1-(5-Bromo-2-phenyl-1H-indol-7-yl)ethanone] | 139 to 142 | > 200 | > 200 | – | – | – | – | – | –
CC(=O)c1cc(Br)cc2cc(-c3ccc(F)cc3)[nH]c12 [Compound 2b, 1-[5-Bromo-2-(4-fluorophenyl)-1H-indol-7-yl]ethanone] | 171 to 173 | > 200 | > 200 | – | – | – | – | – | –
CC(=O)c1cc(Br)cc2cc(-c3cccc(Cl)c3)[nH]c12 [Compound 2c, 1-[5-Bromo-2-(3-chlorophenyl)-1H-indol-7-yl]ethanone] | 140 to 143 | > 200 | > 200 | – | – | – | – | – | –
COc1ccc(-c2cc3cc(Br)cc(C(C)=O)c3[nH]2)cc1 [Compound 2d, 1-[5-Bromo-2-(4-methoxyphenyl)-1H-indol-7-yl]ethanone] | 140 to 142 | > 200 | > 200 | – | – | – | – | – | –
CC(=O)Nc1cc(Br)cc2cc(-c3ccccc3)[nH]c12 [Compound 4a, N-(5-Bromo-2-phenyl-1H-indol-7-yl)acetamide] | – | > 200 | > 200 | Lack of cytotoxicity | Lack of cytotoxicity | – | – | – | –
CC(=O)Nc1cc(Br)cc2cc(-c3ccc(F)cc3)[nH]c12 [Compound 4b, N-[5-Bromo-2-(4-fluorophenyl)-1H-indol-7-yl]acetamide] | – | 116.2 ± 0.78 | 122.4 ± 1.02 | modest cytotoxicity | modest cytotoxicity | – | – | – | –
CC(=O)Nc1cc(Br)cc2cc(-c3cccc(Cl)c3)[nH]c12 [Compound 4c, N-(5-Bromo-2-(3-chlorophenyl)-1H-indol-7-yl)acetamide] | – | 154.6 ± 0.9 | 126.9 ± 1 | modest cytotoxicity | modest cytotoxicity | clear increases | clear increases | – | –
COc1ccc(-c2cc3cc(Br)cc(NC(C)=O)c3[nH]2)cc1 [Compound 4d, N-[5-Bromo-2-(4-methoxyphenyl)-1H-indol-7-yl]acetamide] | – | 146.8 ± 1 | 125 ± 0.88 | modest cytotoxicity | modest cytotoxicity | – | – | – | –
N[C@@H](Cc1ccc(N(CCCl)CCCl)cc1)C(=O)O [Melphalan, reference compound] | – | 30.7 ± 0.76 | 37.16 ± 0.22 | – | – | clear increases | clear increases | – | –
Cc1ccc(S(=O)(=O)Nc2ccc3c(c2)c(C(=O)C(F)(F)F)cn3CC(=O)N[C@@H](CC(C)C)C(=O)O)cc1 [NTRC-824, N-[(5-{[(4-methylphenyl)sulfonyl]amino}-3-(trifluoroacetyl)-1H-indol-1-yl)acetyl]-L-leucine] | – | – | – | – | – | – | – | 90 | 0.038

Now from value to compound, other results behind:

melting point [°C] | Structure (SMILES) | IC50 [1] [µM] | IC50 [2] [µM] | Cytotoxicity (percentage live cells compared to untreated control) [3] | Cytotoxicity (percentage live cells compared to untreated control) [4] | Caspase 8 and 3 activation (% change in mean integrated fluorescence intensity of the untreated control) [5] | Caspase 8 and 3 activation (% change in mean integrated fluorescence intensity of the untreated control) [6] | fold more active than the expected C-3 unsubstituted analogue ([7]; NTS2) [fold] | IC50 [7] [µM]
175 to 176 | CC(=O)c1cc(Br)cc2c(C(=O)C(F)(F)F)c(-c3ccccc3)[nH]c12 [Compound 5a, 1-(7-Acetyl-5-bromo-2-phenyl-1H-indol-3-yl)-2,2,2-trifluoroethanone] | > 200 | > 200 | – | – | – | – | – | –
168 to 171 | CC(=O)c1cc(Br)cc2c(C(=O)C(F)(F)F)c(-c3ccc(F)cc3)[nH]c12 [Compound 5b, 1-[7-Acetyl-5-bromo-2-(4-fluorophenyl)-1H-indol-3-yl]-2,2,2-trifluoroethanone] | > 200 | > 200 | – | – | – | – | – | –
138 to 141 | CC(=O)c1cc(Br)cc2c(C(=O)C(F)(F)F)c(-c3cccc(Cl)c3)[nH]c12 [Compound 5c, 1-[7-Acetyl-5-bromo-2-(3-chlorophenyl)-1H-indol-3-yl]-2,2,2-trifluoroethanone] | > 200 | > 200 | – | – | – | – | – | –
170 to 173 | COc1ccc(-c2[nH]c3c(C(C)=O)cc(Br)cc3c2C(=O)C(F)(F)F)cc1 [Compound 5d, 1-[7-Acetyl-5-bromo-2-(4-methoxyphenyl)-1H-indol-3-yl]-2,2,2-trifluoroethanone] | > 200 | > 200 | – | – | – | – | – | –
141 to 144 | CC(=O)Nc1cc(Br)cc2c(C(=O)C(F)(F)F)c(-c3ccccc3)[nH]c12 [Compound 5e, N-[5-Bromo-2-phenyl-3-trifluoroacetyl-1H-indol-7-yl]acetamide] | 9.94 ± 0.99 | 12.9 ± 1.11 | – | – | – | – | – | –
195 to 197 | CC(=O)Nc1cc(Br)cc2c(C(=O)C(F)(F)F)c(-c3ccc(F)cc3)[nH]c12 [Compound 5f, N-[5-Bromo-2-(4-fluorophenyl)-3-trifluoroacetyl-1H-indol-7-yl]acetamide] | 5.03 ± 0.71 | 7.95 ± 0.9 | – | – | – | – | – | –
179 to 182 | COc1ccc(-c2[nH]c3c(NC(C)=O)cc(Br)cc3c2C(=O)C(F)(F)F)cc1 [Compound 5h, N-[5-Bromo-2-(4-methoxyphenyl)-3-trifluoroacetyl-1H-indol-7-yl]acetamide] | 3.26 ± 0.51 | 10.7 ± 1.03 | – | – | – | – | – | –
